Source: patent publication US20130210042A1, “DIAGNOSTIC AND PROGNOSTIC METHOD FOR HUMAN TAUOPATHIES” (CONSIGLIO NAZIONALE DELLE RICERCHE, priority 2010, published 2013)
Read-outs that look alike come from different tables or passages of the source. Peptide text beside a SMILES is read from it. * marks the point of attachment. Cbz = O=C(OCc1ccccc1)*; CH2F = FC*

Key:
neuronal mitochondria = settings: cited from earlier work; for intracellular ATP bioavailability: ATP synthesized by neuronal mitochondria
[1] = tested on: adenine nucleotide translocator (ANT-1); settings: in vitro; cited from earlier work
AD patients = settings: cited from earlier work
[2] = tested on: dbAMPc/NGF-differentiated human SH-SY5Y human neuroblastoma cells; assay: Generation of the 20-22 kDa NH2 tau fragment in differentiated SH-SY5Y exposed to soluble AD brain extracts (Western blot); assay type: cell-based; settings: 12 h with 1 mg/ml AD brain extract
From the text: FIG. 5. The soluble extracts from AD brain homogenates containing Aβ oligomers induce neurotoxicity and production of the NH2-derived 20-22 kDa tau fragment through the caspase-(s) activation in human differentiated SY5Y. A-B): Biochemical characterization of native Aβ oligomers enriched by crude soluble proteins extracts of AD and age-matched non-demented control brain prepared as reported by, which contained almost no Aβ monomers since the ability of these low-molecular weight species to pass readily through the 10 kDa cutoff filters under the conditions used here. Samples extracted from two different AD brain specimens were pooled and retentates—obtained by 10 kDa cutoff filters (Vivaspin 4 VSO403)—were added to the cell culture at a final concentration of 1 mg/ml. […] Unheated samples were applied on the gel in two different lanes and after transfer the membrane was cut in two equal parts and analyzed in parallel. […] Each data point is the mean±SE (bars) of five independent experiments and statistically significant differences were calculated by paired t-Student's test (*p<0.05; ***p<0.001). […] Each data point is the mean±SE (bars) of three independent experiments and statistically significant differences were calculated by paired t-Student's test (*p<0.05; **p<0.01; ***p<0.001). […]

[3] = target: T1, 20-22 kDa NH2-truncated tau fragment (human, UniProt P10636 26-547); assay: co-immunoprecipitation from synaptosomes with CCP-NH2 tau as bait antibody
T1 construct: Endogenous fragment in human synaptosomes, mitochondria, CSF and STS-treated SH-SY5Y cells; Exact limits not proven; also called NH2htau; NH2 htau fragment
T1 sequence (P10636 other isoform, or with tags, fused parts or gaps limits assumed): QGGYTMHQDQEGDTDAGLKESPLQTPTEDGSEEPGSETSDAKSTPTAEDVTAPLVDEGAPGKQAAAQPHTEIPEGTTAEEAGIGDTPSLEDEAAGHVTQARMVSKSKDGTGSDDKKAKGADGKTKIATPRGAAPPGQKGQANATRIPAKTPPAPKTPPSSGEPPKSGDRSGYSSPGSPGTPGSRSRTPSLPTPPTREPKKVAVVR
Description: A): Western blotting comparing synaptosomal proteins (500 μg) from ND, AD (ND, AD) subjects immunoprecipitated (IP) and probed (WB) with CCP—NH₂ tau (NH₂ aa 26-36 of human tau) antiserum. Total proteins extracts (70 μg unbound) from STS-treated (6hSY5Y) neuronal human SY5Y and from AD synaptosomal proteins (INPUT) were also loaded for lane and included as positive internal control of electrophoretic mobility and immunoprecipitation efficiency. It is noteworthy that a NH₂-tau fragment around 20-22 kDa (arrow), but not-full-length proteins running at 55-75 kDa(arrowheads), was efficiently immunoprecipitated by CCP—NH₂ tau antiserum on synaptic-enriched fractions from AD. The asterisk indicate immunoglobulin light chains in immunoprecipitates and no significant cross-reactions with human intact tau iso forms was found in total, un-precipitated proteins. B-F): In C), Western blotting analysis comparing synaptosomal proteins (500 μg) from ND, AD (ND, AD) subjects immunoprecipitated (IP) with CCP—NH₂ tau (NH₂ aa26-36 of human tau) antiserum and probed (WB) with ANT-1 antibody (the least C-terminal 12 amino acids of human neuronal ANT-1). […]
Next the authors analyzed whether ANT-1—the neuronal-specific isoform of ANT protein—was a mitochondrial target of the NH₂htau fragment.

**Q.** Which results are given for “NH2-26-44 peptide: synthesized NH2-26-44 tau peptide, minimal active moiety of the NH2-26-230 human tau fragment (QGGYTMHQDQEGDTDAGLK)”?
**A.** intracellular ATP bioavailability (neuronal mitochondria): reduces the intracellular ATP bioavailability; intracellular ATP bioavailability (neuronal mitochondria; listed as NH226-44 tau): reduced the intracellular bioavailability of ATP; mitochondrial oxidative phosphorylation (neuronal mitochondria; in vitro): impairs the mitochondrial oxidative phosphorylation; ANT-1-mediated ADP/ATP exchange [1]: specifically inhibited the ANT-1-mediated ADP/ATP exchange in a non-competitive manner

**Q.** For `Cc1ccc2c(c1)c1c(n2CCc2ccc(C)nc2)CCN(C)C1` [Dimebon], which “duration of improved cognitive performance in AD patients” value (AD patients) is on record?
**A.** 12-18 months

**Q.** For `COC(=O)C[C@H](NC(=O)[C@H](C)NC(=O)[C@@H](NC(=O)OCc1ccccc1)C(C)C)C(=O)CF` [Z-VADfmk] (Cbz-Val-Ala-Asp(OMe)-CH2F), which “appearance of 20-22 kDa NH2 tau fragment after pre-incubation with protease inhibitor” value ([2]; 100 μM Z-VADfmk or 20 μM MDL28170) is on record?
**A.** significantly reduced the appearance of 20-22 kDa NH2 tau fragment

**Q.** What about the “caspase-3 activation (cleaved caspase-3 Western blot)” value ([2]; 100 μM Z-VADfmk) of the same molecule?
**A.** blocking the caspase-3 activation

B1: MnSOD-II (enzyme, human, UniProt P04179 25-222, looked up)
chain: KHSLPDLPYDYGALEPHINAQIMQLHHSKHHAAYVNNLNVTEEKYQEALAKGDVTAQIALQPALKFNGGGHINHSIFWTNLSPNGGGEPKGELLEAIKRDFGSFDKFKEKLTAASVGVQGSGWGWLGFNKERGHLQIAACPNQDPLQGTTGLIPLLGIDVWEHAYYLQYKNVRPDYLKAIWNVINWENVTERYMACKK
notes: also called mitochondrial superoxide dismutase
**Q.** Does B1 bind [3]?
**A.** no binding
